Results as given in patent US20260364213A1, “RADIOLABELED COMPOUNDS OF TRIMETHOPRIM AND USES THEREOF” (THE TRUSTEES OF THE UNIVERSITY OF PENNSYLVANIA, priority 2023, published 2026).
Entries after “also recorded” stand apart in the source; their conditions may differ.

Experiments:
HCT116-eDHFR tumors = test: Ex vivo biodistribution in HCT116 tumor-bearing athymic nude mice; parameters: species or system human; settings: 1.85 MBq i.v., 3 hours
Experimental: To evaluate the therapeutic potential [^131I]mI-TMP, sixteen (16) 8- to 12-week-old female athymic nude mice (Charles River Laboratories) were inoculated with 1×10^7 HCT116 tumor cells (eDHFR+ or WT) on the left shoulder. The mice were then divided into two groups: […] (8) mice with HCT116-eDHFR (eDHFR-positive cells) and Eight (8) mice with HCT116-WT (eDHFR-negative) cells.
Ex-vivo biodistribution studies were conducted on three (3) tumor-bearing mice from each group, while the remaining ten (10) mice were used to monitor tumor response to radiotherapy.
Three (3) hours post radiotracer injection mice were euthanized, and organs of interest were harvested for biodistribution quantification. Total radioactive uptake per organ, in counts per minute (CPM), was determined by γ-counter (Perkin Elmer).

eDHFR [1] = biological target: T1, eDHFR (Escherichia coli, UniProt P0ABQ4); format: cell-based; settings: I45 mesothelioma cells, eDHFR-FLAG vs WT; 60 min at 37 °C
T1 sequence (P0ABQ4 1-159): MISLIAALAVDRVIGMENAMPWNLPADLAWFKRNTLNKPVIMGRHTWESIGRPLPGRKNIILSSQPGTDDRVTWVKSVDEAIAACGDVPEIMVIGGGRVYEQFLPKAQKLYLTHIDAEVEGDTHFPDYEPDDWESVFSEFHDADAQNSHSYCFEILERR
Excerpt: See, FIG. 1E. […] See, FIG. 1F.

I45 eDHFR-FLAG tumors = test: I45 RLT, tumor growth in CD1 nude mice; format: in vivo, human; settings: 18.5 MBq/mouse i.v. single dose, n=7; listed as [^131I]I-TMP
Experimental: RLT in I45 tumors. […] Briefly, I45 eDHFR-FLAG and WT cells were xenografted into the shoulders of female athymic CD1-Foxn1nu mice. The tumors were allowed to grow for ~2 weeks. Subsequently, [^131I]I-TMP was administered intravenously and a limited biodistribution study was performed. […] To assess for cytotoxicity in I45 mesothelioma cells, I45 WT and I45 eDHFR tumors were separately xenografted into CD1-Foxn1nu mice and either [^131I]I-TMP or saline was administered to form 4 experimental cohorts (n=7).
[^131I]I-TMPI Administration, and Monitoring. Female CD1 nu/nu mice, aged six to eight weeks, underwent subcutaneous xenografting with 1×10^6 I45 WT and I45 eDHFR-Flag cells on the shoulder. The cells were suspended in a 1:1 volume ratio of 75 μL RPMI complete medium and 75 μL Matrigel Matrix (Corning, 354234). Both I45 WT and I45 eDHFR-Flag mice were randomly divided into two groups, with each group consisting of 7 mice. Tumors were grown for 2 weeks. […] [^131I]I-TMP, diluted in 100 μL saline, was injected into two groups containing I45 WT and I45 eDHFR-Flag xenografts on day 9 of initial tumor inoculation. The remaining two groups of I45 WT and I45 eDHFR-Flag xenografts were injected with saline. Tumor growth was monitored from two days before to 10 days after [^131I]I-TMP injection, with measurements taken every other day using calipers. […]

[2] = test system: primary human hepatocytes; test: Hepatocyte spheroid assay (liver metabolite study); format: in vitro ADME
Experimental: Cryopreserved primary human hepatocytes were acquired from ThermoFisher. To each well of a 96 well ultra-low attachment U-bottom plate, 2,000 cells were plated in 200 μL William's E Medium (no phenol red, 20% FBS, 1% penicillin-streptomycin, 1% insulin-transferrin-selenium solution, […], 1% L-glutamine). The plate was centrifuged at 300 rpm for 2 minutes and then incubated without disturbance. After 5 days, 100 μL of spent media was removed and replaced with fresh media. […] The supernatant was then removed and analyzed on an Agilent 1260 Infinity II LC system equipped with an Eckert & Ziegler FlowCountPRO detector.
Specifically, 2,000 cells were plated in 200 μL William's E Medium (no phenol red, 20% FBS, 1% penicillin-streptomycin, 1% insulin-transferrin-selenium solution, […], 1% L-glutamine). […] The supernatant was then removed and analyzed on an Agilent 1260 Infinity II LC system equipped with an Eckert & Ziegler FlowCountPRO detector.
Specifically, cryopreserved hepatocytes were thawed and diluted 1:10 in a 15 mL conical tube with warm culture media (William's E Medium, no phenol red, 20% FBS, 1% penicillin-streptomycin, 1% insulin-transferrin-selenium solution, […], 1% L-glutamine). […] Cells were counted and diluted to a concentration of 10,000 live cells/mL. […] The supernatant was transferred into an autosampler vial and analyzed by HPLC.

eDHFR [3] = biological target: T1, eDHFR; settings: eDHFR+ cells pre-incubated with 10 μM unlabeled TMP

Structure (SMILES) | uptake in eDHFR tumors relative to WT tumors (HCT116-eDHFR tumors) | uptake in eDHFR+ cells compared to wild type (eDHFR [1]) | tumor growth / in vivo cytotoxicity, I45 eDHFR tumors (I45 eDHFR-FLAG tumors) | de-iodination in hepatocyte culture ([2]; after 24 hours) | de-iodination with CYP450 inhibitor ([2]; with 1-aminobenzotriazole (100 μM)) | uptake under blocked conditions (eDHFR [3])
COc1cc(Cc2cnc(N)nc2N)cc([131I])c1OC [[^131I]mI-TMP, 5-(3-iodo-4,5-dimethoxybenzyl)pyrimidine-2,4-diamine] | twice as much | ~ 80 fold | clear reduction in tumor growth; also recorded: shows in vivo cytotoxicity toward eDHFR-expressing I45 cells |  |  | 
COc1cc(Cc2cnc(N)nc2N)cc(I)c1OC [[^131I]mI-TMP, 5-(3-iodo-4,5-dimethoxybenzyl)pyrimidine-2,4-diamine] |  |  |  | minor de-iodination | could be inhibited | reduced uptake
